Target: Pyruvate dehydrogenase kinase 1 (PDK1) (Homo sapiens, UniProt Q15118)
Assay: ELISA-based in-well kinase assay: active PDK1 (Abcam) phosphorylating captured PDHA1 at Ser232
Assay type: biochemical

Chain of Pyruvate dehydrogenase kinase 1 (PDK1) (Q15118 29-436): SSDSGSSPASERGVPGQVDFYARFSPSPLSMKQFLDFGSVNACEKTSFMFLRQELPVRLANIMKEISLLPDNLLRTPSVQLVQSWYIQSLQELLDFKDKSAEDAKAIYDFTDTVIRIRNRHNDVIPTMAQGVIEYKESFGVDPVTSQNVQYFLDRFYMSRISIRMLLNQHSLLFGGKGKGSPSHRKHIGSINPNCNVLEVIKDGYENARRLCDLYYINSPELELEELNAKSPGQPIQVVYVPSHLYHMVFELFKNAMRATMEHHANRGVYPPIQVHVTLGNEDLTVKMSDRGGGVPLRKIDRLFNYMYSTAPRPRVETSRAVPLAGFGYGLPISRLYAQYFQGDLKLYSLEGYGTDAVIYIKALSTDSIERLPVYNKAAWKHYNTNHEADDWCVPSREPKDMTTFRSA

## O=c1oc2ccccc2c(O)c1Cc1c(O)c2ccccc2oc1=O [DIC, dicumarol]
  IC50: 19.42 ± 0.032 µM

Reference: PMC5472302, “Dicumarol inhibits PDK1 and targets multiple malignant behaviors of ovarian cancer cells” (PLoS ONE, 2017)
